Test results: patent US20220265603A1, “HEPATIC FIBROSIS-INHIBITING AGENT AND BROWN FAT CELL-ACTIVATING AGENT CONTAINING TAXIFOLIN” (NATIONAL HOSPITAL ORGANIZATION, priority 2019, published 2022)

Key:
[1] = tested on: F4/80, TNF-α, IL-1β gene expression; test: Liver tissue inflammation index gene expression, RT PCR; assay type: in vivo, C57BL/6J mice; conditions: high-fat diet+3% taxifolin vs high-fat diet only, 12 weeks
Description: F4/80, TNF-α, IL-1β gene expression: Real-time Quantitative RT PCR

[2] = non-patent document 9; cited from earlier work
[3] = tested on: P38 MAPK, NF-κB p65, JNK phosphorylation; test: Inflammation induction signal pathway activity in liver, Western blotting; assay type: in vivo, C57BL/6J mice; conditions: high-fat diet+3% taxifolin vs high-fat diet only, 12 weeks
Description: P38 MAPK phosphorylation, NF-κB p65 phosphorylation, JNK phosphorylation: Western blotting

[4] = tested on: αSMA, PAI1, TGF-β1, Type1 collagen gene expression; test: Liver fibrosis index gene expression, RT PCR; assay type: in vivo, C57BL/6J mice; conditions: high-fat diet+3% taxifolin vs high-fat diet only, 12 weeks
Description: αSMA, PAI1, TGF-β, 1-type Collagen gene expression: Real-time Quantitative RT PCR

[5] = tested on: type 1 diabetes model rat; conditions: non-patent document 11; cited from earlier work
[6] = tested on: acute pancreatitis model mouse; conditions: non-patent document 10; cited from earlier work
[7] = tested on: liver fatty acid synthesis-related genes; test: Liver fatty acid synthesis-related gene expression, RT PCR; assay type: in vivo, C57BL/6J mice; conditions: high-fat diet+3% taxifolin vs high-fat diet only, 12 weeks
Description: Srebp1c, Lxra, FAS, Scd1, PPARα, Cpt1a gene expression: Real-time Quantitative RT PCR

[8] = tested on: F4/80, αSMA, TGF-β1 protein; test: Liver fibrosis index protein amount, Western blotting; assay type: in vivo, C57BL/6J mice; conditions: 12 weeks
Description: F4/80, αSMA, TGF-β1 protein amount: Western blotting

ACC = test: Liver ACC phosphorylation, Western blotting; assay type: in vivo, C57BL/6J mice; conditions: 12 weeks
Description: (§1) AMPK phosphorylation, ACC phosphorylation: Western blotting

AMPK = test: Liver AMPK phosphorylation, Western blotting; assay type: in vivo, C57BL/6J mice; conditions: 12 weeks
Description: as §1

[9] = Fasting blood glucose and intraperitoneal glucose tolerance test (IPGTT); assay type: in vivo, C57BL/6J mice; conditions: 12 weeks
Experimental: They were allowed to eat and drink freely, and their food intake and body weight were measured once a week. Fasting blood glucose was measured on the first day of the feeding experiment and once every 4 weeks thereafter (at 4, 8, and 12 weeks after the start of the feeding). At the end of 12 weeks, an intraperitoneal glucose tolerance test (IPGTT) was performed to analyze glucose tolerance. Rectal temperature was also measured at 8 and 12 weeks follow-up (Table 2). glucose tolerance: The area under the blood glucose curve (AUC) was calculated from the blood glucose fluctuation curve from fasting blood glucose level to 120 min after ingestion using the trapezoidal formula.

[10] = tested on: fatty acid oxidation-related genes; test: Liver fatty acid oxidation-related gene expression, RT PCR; assay type: in vivo, C57BL/6J mice; conditions: high-fat diet+3% taxifolin vs high-fat diet only, 12 weeks
[11] = Rectal temperature measurement; assay type: in vivo, C57BL/6J mice; conditions: normal diet+3% taxifolin group
Experimental: (§2) They were allowed to eat and drink freely, and their food intake and body weight were measured once a week. Fasting blood glucose was measured on the first day of the feeding experiment and once every 4 weeks thereafter (at 4, 8, and 12 weeks after the start of the feeding). At the end of 12 weeks, an intraperitoneal glucose tolerance test (IPGTT) was performed to analyze glucose tolerance. Rectal temperature was also measured at 8 and 12 weeks follow-up (Table 2).

[12] = tested on: anti-oxidation enzymes (Mn-SOD, CuZn-SOD, Catalase, GP-x); test: Anti-oxidation enzyme gene expression, RT PCR; assay type: in vivo, C57BL/6J mice; conditions: 12 weeks
Description: Anti-oxidation enzyme (Mn-SOD, CuZn-SOD, Catalase, GPx) gene expression: Real-time Quantitative RT PCR

UCP1 gene = UCP1 gene expression in brown adipose tissue, real-time RT PCR; assay type: in vivo, C57BL/6J mice; conditions: high-fat diet+3% taxifolin vs high-fat diet only, 12 weeks
Description: (vii) Histological Analysis of the Liver Observation of morphology and fat accumulation: Hematoxylin Eosin (HE) staining Observation of fibrosis: Azan staining, SiriusRed staining, immunohistochemistry (anti-F4/80 antibody) (viii) Analysis of Brown Adipocytes and UCP1 Target tissue: Brown adipose tissue Target: UCP1 gene Means of analysis: real-time RT PCR analysis

lipid peroxidation = test: Blood and liver tissue lipid peroxidation (MDA) assay; assay type: in vivo, C57BL/6J mice; conditions: 12 weeks
Description: Blood and liver tissue lipid peroxidation: Lipid Peroxidation (MDA) Colorimetric Assay Kit (BioVision, Inc.)

[13] = tested on: Alzheimer's disease model mouse; conditions: cited from earlier work
liver tissue = test: Histological analysis of the liver (HE, Azan, SiriusRed, anti-F4/80); assay type: in vivo, C57BL/6J mice; conditions: 12 weeks
Experimental: Liver samples were partially trimmed for tissue observation, washed, immersed in 4% paraformaldehyde, and fixed at 4° C. overnight. The fixed samples were washed, dehydrated in an ascending ethanol series, and paraffin-embedded. (vii) Histological Analysis of the Liver Observation of morphology and fat accumulation: Hematoxylin Eosin (HE) staining Observation of fibrosis: Azan staining, SiriusRed staining, immunohistochemistry (anti-F4/80 antibody) (viii) Analysis of Brown Adipocytes and UCP1 Target tissue: Brown adipose tissue Target: UCP1 gene Means of analysis: real-time RT PCR analysis

Tissue weight at autopsy = assay type: in vivo, C57BL/6J mice; conditions: high-fat diet+3% taxifolin vs high-fat diet only, 12 weeks
Experimental: The last fasting blood glucose was measured 5 days after the day of PGTT, and all blood samples were collected under ether anesthesia, then the mice were euthanized by cervical dislocation, and samples were collected and partially weighed as shown in Table 3 below.

[14] = Food ingestion experiment: body weight and food intake; assay type: in vivo, C57BL/6J mice
Experimental: as §2, with “C57BL/6J mice were used as experimental animals. They were purchased at the age of 7 weeks from CLEA Japan, Inc. and randomly divided into four groups at the age of 8 weeks after 1 week of acclimation as shown in Table 1 below. They” for “They”

[15] = Blood concentration and biochemical test; assay type: in vivo, C57BL/6J mice; conditions: high-fat diet+3% taxifolin vs high-fat diet only, 12 weeks
Description: insulin concentration: Ultra-sensitive mouse insulin ELISA kit (Morinaga Institute of Biological Science, Inc.) leptin concentration: mouse/rat leptin ELISA kit (Morinaga Institute of Biological Science, Inc.) adiponectin concentration: mouse/rat adiponectin ELISA kit (Otsuka Pharmaceutical Co., Ltd.) Triglyceride: Lab Assay Kit (Wako) TNF-α, IL-1β concentration: ELISA kit (Proteintech) ALT, AST levels: Assay Kit (Funakoshi Co., Ltd.)

[16] = high-fat diet+3% taxifolin vs high-fat diet only
[17] = normal diet+3% taxifolin vs normal diet only
[18] = liver tissue, high-fat diet+3% taxifolin vs high-fat diet only

O=C1c2c(O)cc(O)cc2O[C@H](c2ccc(O)c(O)c2)[C@H]1O [taxifolin]
F4/80 gene expression [1]: significantly decreased
IL-1β gene expression [1]: significantly decreased
TNF-α gene expression [1]: significantly decreased
safety for intake [2]: safe for intake
NF-κB p65 phosphorylation [3]: significantly decreased
P38 MAPK phosphorylation ([3]; P=0.1045): decreasing trend
c-Jun amino-terminal kinase (JNK) phosphorylation ([3]; P=0.1701): decreasing trend
PAI1 gene expression [4]: significantly decreased
TGF-β1 gene expression [4]: significantly decreased
αSMA gene expression [4]: significantly decreased
Collagen 1 gene expression ([4]; P=0.07): decreasing trend
blood glucose [5]: blood glucose-improving effects
anti-oxidation action [6]: anti-oxidation action
FAS gene expression [7]: significantly decreased
Lxrα gene expression [7]: significantly decreased
Scd1 gene expression [7]: significantly decreased
Srebp1c gene expression [7]: significantly decreased
F4/80 protein amount [8, 16]: significantly decreased
αSMA protein amount ([8]; high-fat diet+3% taxifolin vs high-fat diet only, P=0.054): decreasing trend
F4/80 protein amount [8, 17]: decrease was significant
TGF-β1 protein amount [8, 17]: significantly decreased
ACC phosphorylation (ACC; [16]): significantly increased
ACC phosphorylation (ACC; [17]): significantly increased
AMPK phosphorylation (AMPK; [16]): significantly increased
AMPK phosphorylation (AMPK; [17]): significantly increased
fasting blood glucose (FIG. 6A) [9, 16]: significantly decreased
blood glucose area under the curve (AUC) ([9]; high-fat diet+3% taxifolin vs high-fat diet only, IPGTT): significantly decreased
blood glucose level at 60 min after start of intraperitoneal glucose tolerance test ([9]; normal diet+3% taxifolin group): significantly lower
fasting blood glucose (FIG. 3A) ([9]; normal diet+3% taxifolin group): significantly lower
fasting blood glucose (FIG. 6A) [9, 17]: significantly decreased
Cd36 gene expression [10]: significantly decreased
rectal temperature ([11]; 8 weeks): significantly higher
rectal temperature ([11]; 12 weeks): trend was also observed
Catalase gene expression [12, 16]: significantly decreased
CuZn-SOD gene expression [12, 16]: significantly decreased
GP-x gene expression [12, 16]: significantly decreased
Mn-SOD gene expression [12, 16]: significantly decreased
Mn-SOD gene expression [12, 17]: significantly decreased
UCP1 gene expression (UCP1 gene): significantly increased
concentration of MDA in the liver (lipid peroxidation; [16]): significantly decreased
concentration of malondialdehyde (MDA) in blood (lipid peroxidation; [16]): significantly decreased
concentration of MDA in the liver (lipid peroxidation; [17]): significantly decreased
amyloid P coagulation [13]: suppression of amyloid P coagulation
brain blood flow [13]: improvement of brain blood flow
spatial recognition function in the water maze test [13]: improvement of spatial recognition function
hepatic crown-like structures (hCLS), anti-F4/80 immunohistochemical staining (liver tissue; high-fat diet+3% taxifolin group vs high-fat diet-only group): hardly observed
fat accumulation in liver, HE staining (liver tissue; [16]): markedly reduced
amount of collagen stained blue, Azan staining (liver tissue; [18]): reduced
amount of collagen stained red, Sirius Red staining (liver tissue; [18]): decreased
brown adipose tissue weight (BAT weight) (Tissue weight at autopsy): significantly decreased
epididymal fat weight (EPI WAT weight) (Tissue weight at autopsy): significantly decreased
liver weight (Tissue weight at autopsy): significantly decreased
body weight ([14]; high-fat diet+3% taxifolin vs high-fat diet only, 4 weeks): significant difference
body weight ([14]; normal diet+3% taxifolin group vs all other groups, 8 weeks): significant difference in weight loss
body weight ([14]; normal diet+3% taxifolin group vs other groups, 12 weeks): no weight gain was observed
body weight ([14]; normal diet+3% taxifolin group, 6 weeks): significant difference in weight loss
blood ALT levels [15]: significantly decreased
blood insulin concentration [15]: significantly decreased
blood leptin concentration [15]: significantly decreased
insulin resistance index (HOMA-R) [15]: significantly decreased
liver triglyceride concentration [15]: significantly decreased
blood TNF-α concentration ([15]; P=0.076): tendency to decrease
blood triglyceride concentration ([15]; P=0.079): decreasing trend
blood IL-1β concentration ([15]; P=0.0932): tendency to decrease
